Experimental findings from patent publication US12441704B2, “Compounds active towards nuclear receptors” (NUEVOLUTION A/S, priority 2019, dated 2025) are described below.

In assay [1] the target is T1, RORγ ligand-binding domain fused to Gal4 (Homo sapiens, UniProt P51449).
T1 construct: Gal4 (galactose-responsive transcription factor); expressed in transfected cells; host or cells: HEK293
T1 sequence (P51449 269-508 limits assumed): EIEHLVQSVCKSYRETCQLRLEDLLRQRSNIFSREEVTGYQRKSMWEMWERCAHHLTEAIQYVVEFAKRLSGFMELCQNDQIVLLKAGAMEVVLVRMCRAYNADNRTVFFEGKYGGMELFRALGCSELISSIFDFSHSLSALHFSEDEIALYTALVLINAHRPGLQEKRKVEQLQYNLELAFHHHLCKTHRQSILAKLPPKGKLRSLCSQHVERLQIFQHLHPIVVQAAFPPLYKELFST
The experiment in a line: RORγ Reporter Assay (Gal4). The class given is cell-based. In short, it runs like this:
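HEK293 cells transiently co-transfected with the Gal4-fused RORγ LBD and a UAS-luciferase reporter were exposed to compounds for 24 h at 37 °C (0.1% DMSO final). Luminescence was read, and percent reduction of RORγ activity was calculated relative to vehicle-average RLU.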
(In general: In a reporter assay the amount or activity of a reporter protein is the signal.)

Assay [2] relates to IL-17A secretion in activated PBMCs. The experiment in a line: IL-17A secretion in activated PBMCs. The assay is classed as cell-based, human. Conditions: for pIC50: human PBMCs stimulated with CD3/CD28 Dynabeads for 48 h, absolute IC50. Here is the method: Heparin-treated whole blood from healthy human volunteers was supplied from Hospital de Sant Pau (Barcelona) under the approval of the local ethical review board for human studies (Hospital de Sant Pau, Barcelona, Spain). Human peripheral blood mononuclear cells (PBMCs) were isolated from healthy human volunteers by density gradient centrifugation using the Ficoll-Paque (GE Healthcare). […] Cells were seeded in 384-well plate (DiscoverX), at 40,000 cells per well and cultured 2 h at 37° C. and 5% CO2.
Dose-response curves with compounds were prepared using a 5-fold serial dilution (10 concentrations) in 100% DMSO and further diluted 100-fold in culture medium. Compound solutions (5 μL) were added to the plate containing cells (final DMSO concentration of 0.1%) and incubated for 30 min. Then, cells were stimulated with CD3/CD28 Dynabeads (ThermoFisher, at a bead-to-cell ratio of 1:1) for 48 h at 37° C. and 5% CO2.
IL-17A levels in supernatant were determined by immunoassay using hIL17A QBeads (Intellicyt) and by fluorescence analysis in iQue flow cytometer following the manufacturer's instructions. Inhibition of IL-17A secretion was calculated using the following formula: inhibition=100*[1−[(x−mean basal condition)/(mean top condition−mean basal condition)]]. Activated DMSO-treated cells were used as top condition and activated GNE09461 (10 μM)-treated cells as basal condition.

The mark [3] stands for this setting: HEK293 cells co-transfected with RORγ LBD-Gal4 and luciferase reporter, 24 h incubation, absolute EC50, read-out: EC50.
The mark [4] stands for this setting: compounds of the present disclosure, value from Table 2 herein, read-out: Gal4 assay EC50.

pEC50, pIC50: −log10 of the molar value. Like-named read-outs stand apart in the source and are kept apart here.

Broadly, the pEC50 is −log10 of the EC50, conventionally taken in molar units. Usually pIC50 stands for −log10 of the IC50, conventionally taken in molar units. Lower therefore signals a large IC50. As for `Cn1cc(-c2ccc(CN(c3ncnc(NC[C@@H]4CCN(CC(N)=O)C[C@H]4O)c3F)C3CC3)cc2)cn1` (racemic) [Example A7-74, rac-2-((3R,4R)-4-(((6-(cyclopropyl(4-(1-methyl-1H-pyrazol-4-yl)benzyl)amino)-5-fluoropyrimidin-4-yl)amino)methyl)-3-hydroxypiperidin-1-yl)acetamide], the pEC50 in assay [1] (setting [3]) is 7.92. The compound further had a pIC50 in assay [2] (Homo sapiens, PBMC, 48 h) of 7.64.

Turning to `Cn1cc(-c2ccc(CN(c3ncnc(NC[C@@H]4CCN(CC(N)=O)C[C@H]4O)c3F)C3CC3)c(F)c2)cn1` (racemic) [Example A7-75, rac-2-((3R,4R)-4-(((6-(cyclopropyl(2-fluoro-4-(1-methyl-1H-pyrazol-4-yl)benzyl)amino)-5-fluoropyrimidin-4-yl)amino)methyl)-3-hydroxypiperidin-1-yl)acetamide], the pEC50 in assay [1] (setting [3]) was 7.89. For the same compound, in assay [2] (Homo sapiens, PBMC, 48 h), the negative logarithm of the IC50 (pIC50) was 7.74.

For `NC(=O)CN1CC[C@@H](CNc2ncnc(N(Cc3ccc(-n4cccn4)cc3F)C3CC3)c2F)[C@H](O)C1` (racemic) [Example A7-76, rac-2-((3R,4R)-4-(((6-(cyclopropyl(2-fluoro-4-(1H-pyrazol-1-yl)benzyl)amino)-5-fluoropyrimidin-4-yl)amino)methyl)-3-hydroxypiperidin-1-yl)acetamide], the pEC50 in assay [1] (setting [3]) was 8.18. For the same compound, in assay [2] (Homo sapiens, PBMC, 48 h), the pIC50 was 7.04.

Turning to `CCN(Cc1ccc(-n2cccn2)cc1)c1ncnc(NC[C@@H]2CCN(CC(N)=O)C[C@H]2O)c1F` (racemic) [Example A7-77, rac-2-((3R,4R)-4-(((6-((4-(1H-Pyrazol-1-yl)benzyl)(ethyl)amino)-5-fluoropyrimidin-4-yl)amino)methyl)-3-hydroxypiperidin-1-yl)acetamide], in assay [1] (setting [3]), the pEC50 was 7.14. The compound also had a negative logarithm of the IC50 (pIC50) in assay [2] (Homo sapiens, PBMC, 48 h) of 6.36.

Broadly, the inhibition is how much of the control response was suppressed. In the case of `CCN(Cc1ccc(C#N)cc1)c1ncnc(NC[C@@H]2CCN(CC(N)=O)C[C@H]2O)c1F` (racemic) [Example A7-78, rac-2-((3R,4R)-4-(((6-((4-cyanobenzyl)(ethyl)amino)-5-fluoropyrimidin-4-yl)amino)methyl)-3-hydroxypiperidin-1-yl)acetamide], the negative-log EC50 (pEC50) in assay [1] (setting [3]) was 7.19. This compound showed an inhibition at 10 µM in assay [2] (PBMC, @10 uM, human PBMCs stimulated with CD3/CD28 Dynabeads) of 70%.

In the case of `CC(C)(C(N)=O)N1CC[C@@H](CNc2ncnc(N(Cc3ccc(C(F)(F)F)cc3)C3CC3)c2F)[C@H](O)C1` (relative stereo) [Example A7-55, rel-2-((3R,4R)-4-(((6-(cyclopropyl(4-(trifluoromethyl)benzyl)amino)-5-fluoropyrimidin-4-yl)amino)methyl)-3-hydroxypiperidin-1-yl)-2-methylpropanamide], in assay [1] (setting [3]), the negative logarithm of the EC50 (pEC50) was 8.33. Besides, the negative logarithm of the IC50 (pIC50) in assay [2] (Homo sapiens, PBMC, 48 h) is 8.31.

Turning to `CCN(Cc1ccc(C(F)(F)F)cc1)c1ncnc(NC[C@@H]2CCN([C@H](CO)C(N)=O)C[C@H]2O)c1F` (relative stereo) [Example A7-66-1, rel-(R)-2-((3R,4R)-4-(((6-(ethyl(4-(trifluoromethyl)benzyl)amino)-5-fluoropyrimidin-4-yl)amino)methyl)-3-hydroxypiperidin-1-yl)-3-hydroxypropanamide OR rel-(R)-2-((3S,4S)-4-(((6-(ethyl(4-(trifluoromethyl)benzyl)amino)-5-fluoropyrimidin-4-yl)amino)methyl)-3-hydroxypiperidin-1-yl)-3-hydroxypropanamide], the pEC50 in assay [1] (setting [3]) was 7.59. In assay [2] (Homo sapiens, PBMC, 48 h), this compound showed a negative logarithm of the IC50 (pIC50) of 7.74.

With `CCN(Cc1ccc(C(F)(F)F)cc1)c1ncnc(NC[C@H]2CCN(C(CO)C(N)=O)C[C@@H]2O)c1F` (relative stereo) [Example A7-66-2, rel-(R)-2-((3R,4R)-4-(((6-(ethyl(4-(trifluoromethyl)benzyl)amino)-5-fluoropyrimidin-4-yl)amino)methyl)-3-hydroxypiperidin-1-yl)-3-hydroxypropanamide OR rel-(R)-2-((3S,4S)-4-(((6-(ethyl(4-(trifluoromethyl)benzyl)amino)-5-fluoropyrimidin-4-yl)amino)methyl)-3-hydroxypiperidin-1-yl)-3-hydroxypropanamide], the negative logarithm of the EC50 (pEC50) in assay [1] (setting [3]) is 7.06. The pIC50 in assay [2] was 6.68.

As for `[2H]C([2H])(C(N)=O)N1CC[C@@H](CNc2ncnc(N(Cc3ccc(C(F)(F)F)cc3)C3CC3)c2F)[C@H](O)C1` (relative stereo) [Example A7-69, rel-2-((3R,4R)-4-(((6-(cyclopropyl(4-(trifluoromethyl)benzyl)amino)-5-fluoropyrimidin-4-yl)amino)methyl)-3-hydroxypiperidin-1-yl)acetamide-2,2-d2], in assay [1] (setting [3]), the pEC50 is 8.57. The same compound showed a pIC50 in assay [2] (Homo sapiens, PBMC, 48 h) of 8.51.

For the compound `CCN(Cc1ccc(C(O)(C(F)(F)F)C(F)(F)F)cc1)c1ncnc(NC[C@]2(O)CCN(CC(N)=O)C[C@H]2O)c1F` (relative stereo) [Example D5-04, rel-2-((3R,4R)-4-(((6-(ethyl(4-(1,1,1,3,3,3-hexafluoro-2-hydroxypropan-2-yl)benzyl)amino)-5-fluoropyrimidin-4-yl)amino)methyl)-3,4-dihydroxypiperidin-1-yl)acetamide], the negative-log EC50 (pEC50) in assay [1] (setting [3]) was 8.26. The compound also had a pIC50 in assay [2] (Homo sapiens, PBMC, 48 h) of 9.00.

Turning to `CCN(Cc1ccc(C(F)(F)F)cc1)c1ncnc(NC[C@@]2(O)CCN(C(C(N)=O)c3ccncc3)C[C@@H]2O)c1F` (relative stereo) [Example D5-07, rel-2-((3R,4R)-4-(((6-(ethyl(4-(trifluoromethyl)benzyl)amino)-5-fluoropyrimidin-4-yl)amino)methyl)-3,4-dihydroxypiperidin-1-yl)-2-(pyridin-4-yl)acetamide], the negative-log EC50 (pEC50) in assay [1] (setting [3]) is 8.35. In assay [2] (Homo sapiens, PBMC, 48 h), this compound showed a negative logarithm of the IC50 (pIC50) of 8.60.

For `NC(=O)C(c1ccncc1)N1CC[C@](O)(CNc2ncnc(N(Cc3ccc(C(F)(F)F)cc3)C3CC3)c2F)[C@@H](O)C1` (relative stereo) [Example D5-08, rel-2-((3R,4R)-4-(((6-(cyclopropyl(4-(trifluoromethyl)benzyl)amino)-5-fluoropyrimidin-4-yl)amino)methyl)-3,4-dihydroxypiperidin-1-yl)-2-(pyridin-4-yl)acetamide], the pEC50 in assay [1] (setting [3]) is 8.21. In addition, the negative-log IC50 (pIC50) in assay [2] (Homo sapiens, PBMC, 48 h) was 8.57.

For `NC(=O)CN1CC[C@@H](CNc2ncnc(N(Cc3ccc(C(F)(F)F)cn3)C3CC3)c2F)[C@H](O)C1` (single isomer, unassigned) [Example A7-14-1], the pEC50 in assay [1] (setting [3]) is 8.08; in assay [1] (setting [4]), more than 7.00. Further, the pIC50 in assay [2] (Homo sapiens, PBMC, 48 h) was 7.42.

As to `NC(=O)CN1CC[C@@H](CNc2ncnc(N(Cc3ccc(C(F)(F)F)nc3)C3CC3)c2F)[C@H](O)C1` (single isomer, unassigned) [Example A7-28-1], the negative-log EC50 (pEC50) in assay [1] (setting [3]) is 7.38. The compound further had a pIC50 in assay [2] (Homo sapiens, PBMC, 48 h) of 7.21.

Take `NC(=O)CN1CC[C@H](CNc2ncnc(N(Cc3ccc(C(F)(F)F)nc3)C3CC3)c2F)[C@@H](O)C1` (single isomer, unassigned) [Example A7-28-2]: the pEC50 in assay [1] (setting [4]) is more than 7.00. The pIC50 in assay [2] (Homo sapiens, PBMC, 48 h) is 7.09.

Take `NC(=O)CN1CC[C@@H](CNc2ncnc(N(Cc3ccc(C(O)(C(F)(F)F)C(F)(F)F)cc3)C3CC3)c2F)[C@H](O)C1` (single isomer, unassigned) [Example A7-54-1]: the pEC50 in assay [1] (setting [3]) was 8.42. Further, the pIC50 in assay [2] (Homo sapiens, PBMC, 48 h) is 8.01.

With `CCN(Cc1ccc(C(F)(F)F)cc1)c1ncnc(NC[C@]2(O)CCN(CC(N)=O)C[C@H]2O)c1F` (single isomer, unassigned) [Example D5-01-1-2], the pEC50 in assay [1] (setting [3]) is 8.02. Further, the pIC50 in assay [2] was 7.62.

Regarding `Cn1cc(-c2ccc(CN(c3ncnc(NC[C@]4(O)CCN(CC(N)=O)C[C@H]4O)c3F)C3CC3)c(F)c2)cn1` (single isomer, unassigned) [Example D5-05-2], in assay [1] (setting [3]), the pEC50 is 7.54. In assay [2], the pIC50 was 6.70.

Consider `NC(=O)CN1CC[C@H](CNc2ncnc(N(Cc3ccc(C(F)(F)F)cc3)C3CC3)c2F)[C@@H](O)C1` (stereo in doubt) [Example A7-01-2, rel-2-((3R,4R)-4-(((6-(Cyclopropyl(4-(trifluoromethyl)benzyl)amino)-5-fluoropyrimidin-4-yl)amino)methyl)-3-hydroxypiperidin-1-yl)acetamide], for which, in assay [1] (setting [3]), the negative logarithm of the EC50 (pEC50) was 8.82. This compound also gave a pIC50 in assay [2] (Homo sapiens, PBMC, 48 h) of 8.57.
